This is an account of results in article PMC8963254, “Effects of Lysine N-ζ-Methylation in Ultrashort Tetrabasic Lipopeptides (UTBLPs) on the Potentiation of Rifampicin, Novobiocin, and Niclosamide in Gram-Negative Bacteria” (Antibiotics, 2022).

Common to all, as to experiment: microbe, parasite or virus in culture
The test system of assay [1] is P. aeruginosa PA259-96196. In kind it is cell-based, Pseudomonas aeruginosa. The note with it: P. aeruginosa 259-96196; for MIC: Pseudomonas aeruginosa, PA25996196, 18 h, read-out: MICs of various antibiotics. Here is the method:
(§1) The in vitro antibacterial activity of the UTBLPs was assessed against wild-type and clinically isolated bacterial strains. To obtain the MIC of the compounds, the microbroth dilution susceptibility assay was performed according to the Clinical and Laboratory Standards Institute (CLSI, Wayne, PA, USA) guidelines and as previously described. Briefly, the compounds at varying concentrations were incubated with bacterial inoculum (5 × 10^5 CFU/mL final concentration) at 37 °C for 18 h. Growth in the form of turbidity was confirmed using an EMax Plus microplate reader (Molecular Devices, San Jose, CA, USA) at 590 nm.

The test system of assay [2] is P. aeruginosa PA262-101856. In kind it is cell-based, Pseudomonas aeruginosa. To be noted: P. aeruginosa 262-101856; for MIC: Pseudomonas aeruginosa, PA262101856, 18 h, read-out: MICs of various antibiotics. The protocol: as §1
The next assay deals with A. baumannii AB027. In kind it is cell-based, Acinetobacter baumannii. To be noted: A. baumannii AB027; for MIC: Acinetobacter baumannii, 18 h, read-out: MICs of various antibiotics. Here is the method:
as §1

Another assay concerns A. baumannii AB92247. The class given is cell-based, Acinetobacter baumannii. The note with it: A. baumannii 92247; for MIC: Acinetobacter baumannii, AB92247, 18 h, read-out: MICs of various antibiotics. Here is the method:
as §1

The test system of the next assay is E. coli 94393. The class given is cell-based, Escherichia coli. To be noted: E. coli 94393 (mcr-1 +); for MIC: Escherichia coli, 18 h, read-out: MICs of various antibiotics. Here is the method: as §1
In a further assay the test system is E. coli 94474. The class given is cell-based, Escherichia coli. To be noted: E. coli 94474 (mcr-1 +); for MIC: Escherichia coli, 18 h, read-out: MICs of various antibiotics. Here is the method:
as §1

For the next assay, the system named is E. cloacae 118564. In kind it is cell-based, Enterobacter cloacae. To be noted: E. cloacae 118564; for MIC: Enterobacter cloacae, 18 h, read-out: MICs of various antibiotics. The protocol:
as §1

The test system of another assay is K. pneumoniae 113250. In kind it is cell-based, Klebsiella pneumoniae. The note with it: K. pneumoniae 113250; for MIC: Klebsiella pneumoniae, 18 h, read-out: MICs of various antibiotics. The protocol: as §1

Values after ≈ are worked out from the molar mass of the structure shown.

Consider `NCC[C@H](O)C(=O)N[C@@H]1C[C@H](N)[C@@H](O[C@H]2O[C@H](CN)[C@@H](O)[C@H](O)[C@H]2O)[C@H](O)[C@H]1O[C@H]1O[C@H](CO)[C@@H](O)[C@H](N)[C@H]1O` [AMK, amikacin], for which the MIC is above 64 µg/mL in assay [1]; above 64 µg/mL in assay [2]; above 64 µg/mL in the assay with A. baumannii AB027; below 1 µg/mL with A. baumannii AB92247; 2 µg/mL (≈ 3.42 µM) in the assay with E. coli 94393; 2 µg/mL (≈ 3.42 µM) in the assay on E. coli 94474. Further, the figures for the MIC in the assay with E. cloacae 118564 and with K. pneumoniae 113250 were 2 µg/mL (≈ 3.42 µM) and at most 1 µg/mL, respectively.
For `Cc1nnc(SCC2=C(C(=O)O)N3C(=O)[C@@H](NC(=O)Cn4cnnn4)[C@H]3SC2)s1` [CFZ, cefazolin], the MIC in assay [1] is above 128 µg/mL; in assay [2], above 128 µg/mL; in the assay with A. baumannii AB027, above 128 µg/mL; with A. baumannii AB92247, 128 µg/mL (≈ 282 µM); in the assay with E. coli 94393, 1 µg/mL (≈ 2.2 µM); in the assay on E. coli 94474, 4 µg/mL (≈ 8.8 µM). Also, the MIC in the assay on E. cloacae 118564 was above 128 µg/mL; in the assay with K. pneumoniae 113250, 1 µg/mL (≈ 2.2 µM).
Turning to `CO/N=C(\C(=O)N[C@@H]1C(=O)N2C(C(=O)[O-])=C(C[N+]3(C)CCCC3)CS[C@H]12)c1csc(N)n1` [CPM, cefepime], the MIC is above 64 µg/mL in assay [1]; 32 µg/mL (≈ 66.6 µM) in assay [2]; above 128 µg/mL in the assay with A. baumannii AB027; 4 µg/mL (≈ 8.32 µM) in the assay with A. baumannii AB92247; at most 0.25 µg/mL with E. coli 94393; at most 0.25 µg/mL with E. coli 94474. Further, the MIC was 0.25 µg/mL (≈ 0.52 µM) in the assay on E. cloacae 118564 and 1 µg/mL (≈ 2.08 µM) in the assay with K. pneumoniae 113250.
Take `CO[C@@]1(NC(=O)Cc2cccs2)C(=O)N2C(C(=O)O)=C(COC(N)=O)CS[C@@H]21` [FOX, cefoxitin]: the MIC in assay [1] was above 32 µg/mL; in assay [2], above 32 µg/mL; in the assay on A. baumannii AB92247 it was 32 µg/mL (≈ 74.9 µM); with E. coli 94393, 4 µg/mL (≈ 9.36 µM); in the assay on E. coli 94474, 16 µg/mL (≈ 37.4 µM); with E. cloacae 118564 it was above 32 µg/mL. The MIC with K. pneumoniae 113250 was found to be 1 µg/mL (≈ 2.34 µM).
With `CNC(C)C1CCC(N)C(OC2C(N)CC(N)C(OC3OCC(C)(O)C(NC)C3O)C2O)O1` (centres unmarked) [GEN, gentamicin], the MIC in assay [1] is above 32 µg/mL; in assay [2] it was above 32 µg/mL; in the assay with A. baumannii AB027, 32 µg/mL (≈ 67 µM); with E. coli 94393, at most 0.5 µg/mL; in the assay with E. coli 94474, 16 µg/mL (≈ 33.5 µM); with E. cloacae 118564, 1 µg/mL (≈ 2.09 µM). Moreover, the MIC in the assay on K. pneumoniae 113250 is at most 0.5 µg/mL.
As to `C[C@@H](O)[C@H]1C(=O)N2C(C(=O)O)=C(S[C@@H]3CN[C@H](C(=O)N(C)C)C3)[C@H](C)[C@H]12` [MER, meropenem], the MIC in assay [1] was 1020 µg/mL (≈ 2670 µM); in assay [2], 32 µg/mL (≈ 83.4 µM); in the assay on A. baumannii AB027, 16 µg/mL (≈ 41.7 µM); in the assay on A. baumannii AB92247, 4 µg/mL (≈ 10.4 µM); with E. coli 94393, at most 0.03 µg/mL; in the assay with E. coli 94474 it was at most 0.03 µg/mL. The MIC in the assay on E. cloacae 118564 was 0.12 µg/mL (≈ 0.313 µM); with K. pneumoniae 113250, at most 0.03 µg/mL.
Consider `CN(C)c1ccc(O)c2c1C[C@H]1C[C@H]3[C@H](N(C)C)C(O)=C(C(N)=O)C(=O)[C@@]3(O)C(O)=C1C2=O` [MIN, minocycline], for which the MIC in assay [1] was 32 µg/mL (≈ 69.9 µM); in assay [2], 64 µg/mL (≈ 140 µM); in the assay on A. baumannii AB027, 0.25 µg/mL (≈ 0.546 µM); with A. baumannii AB92247, 0.125 µg/mL (≈ 0.273 µM); with E. coli 94393, 2 µg/mL (≈ 4.37 µM); in the assay with E. coli 94474 it was 64 µg/mL (≈ 140 µM). Further, the MIC in the assay with K. pneumoniae 113250 was 2 µg/mL (≈ 4.37 µM).
Regarding `COc1c(N2C[C@@H]3CCCN[C@@H]3C2)c(F)cc2c(=O)c(C(=O)O)cn(C3CC3)c12` [MOX, moxifloxacin], the MIC is above 16 µg/mL in assay [1]; above 16 µg/mL in assay [2]; 8 µg/mL (≈ 19.9 µM) in the assay with A. baumannii AB027; 1 µg/mL (≈ 2.49 µM) with E. coli 94393; 16 µg/mL (≈ 39.9 µM) in the assay on E. coli 94474; 0.12 µg/mL (≈ 0.299 µM) in the assay with E. cloacae 118564. In addition, the MIC in the assay on K. pneumoniae 113250 is at most 0.06 µg/mL.
Regarding `CN(C)c1cc(NC(=O)CNC(C)(C)C)c(O)c2c1C[C@H]1C[C@H]3[C@H](N(C)C)C(O)=C(C(N)=O)C(=O)[C@@]3(O)C(O)=C1C2=O` [TGC, tigecycline], the MIC is 32 µg/mL (≈ 54.6 µM) in assay [1]; 32 µg/mL (≈ 54.6 µM) in assay [2]; 4 µg/mL (≈ 6.83 µM) in the assay with A. baumannii AB027; 0.25 µg/mL (≈ 0.427 µM) with A. baumannii AB92247; 0.25 µg/mL (≈ 0.427 µM) in the assay on E. coli 94393; 1 µg/mL (≈ 1.71 µM) in the assay with E. coli 94474.
Take colistin [CST]: the “MICs of various antibiotics” value in assay [1] worked out at 1 µg/mL; in assay [2], 1 µg/mL; against A. baumannii AB027, 0.25 µg/mL; with A. baumannii AB92247, 4 µg/mL; against E. coli 94393 it was 4 µg/mL; with E. coli 94474, 16 µg/mL. Further, the “MICs of various antibiotics” value against E. cloacae 118564 and against K. pneumoniae 113250 was above 16 µg/mL each time.
